Experiments:
Format in all cases: cell-based
[1] = test system: H1975 (EGFR^L858R/T790M) cells; experiment: Antiproliferative activity on H1975 (EGFR L858R/T790M) cells (CTG); settings: Homo sapiens, NCI-H1975; H1975 (EGFR^L858R/T790M) cells, 72h incubation, CTG luminescence; read-out: IC50 (nM), antiproliferative activity
Description: 30 nL of the compound dilution was added to a 384-well plate by Echo (Labcyte, Echo550).
The percent inhibition rate (% inhibition) was calculated by the following formula
[formula] • LUMcmpd: Luminescence value of assay compound. • LUMpositive: Average LUM value of positive drug with a concentration of 10 μM. • LUMvehicle: Average LUM value of negative control group without drug treatment.
The nonlinear regression curve (dose response-variable slope) between the value of inhibition rate (%) and the logarithm of compound concentration was fitted with graphpad prism 8.0, the effect dose curve of compound was drawn, and the IC50 value was calculated.
Y=Bottom+(Top−Bottom)/(1+10^((Log IC50−X)*HillSlope)) • X-axis: logarithm of compound concentration; Y axis: inhibition rate (inhibition).

[2] = target: Ba/F3 (EGFR^L858R/T790M/C797S) cells (Homo sapiens, UniProt P00533, T790M/C797S/L858R, cells depend on it); experiment: Antiproliferative activity on Ba/F3 (EGFR L858R/T790M/C797S) cells (CTG); settings: 72h incubation, CTG luminescence, read-out: IC50 (nM), antiproliferative activity
Ba/F3 (EGFR^L858R/T790M/C797S) cells, sequence (P00533 whole entry T790M/C797S/L858R): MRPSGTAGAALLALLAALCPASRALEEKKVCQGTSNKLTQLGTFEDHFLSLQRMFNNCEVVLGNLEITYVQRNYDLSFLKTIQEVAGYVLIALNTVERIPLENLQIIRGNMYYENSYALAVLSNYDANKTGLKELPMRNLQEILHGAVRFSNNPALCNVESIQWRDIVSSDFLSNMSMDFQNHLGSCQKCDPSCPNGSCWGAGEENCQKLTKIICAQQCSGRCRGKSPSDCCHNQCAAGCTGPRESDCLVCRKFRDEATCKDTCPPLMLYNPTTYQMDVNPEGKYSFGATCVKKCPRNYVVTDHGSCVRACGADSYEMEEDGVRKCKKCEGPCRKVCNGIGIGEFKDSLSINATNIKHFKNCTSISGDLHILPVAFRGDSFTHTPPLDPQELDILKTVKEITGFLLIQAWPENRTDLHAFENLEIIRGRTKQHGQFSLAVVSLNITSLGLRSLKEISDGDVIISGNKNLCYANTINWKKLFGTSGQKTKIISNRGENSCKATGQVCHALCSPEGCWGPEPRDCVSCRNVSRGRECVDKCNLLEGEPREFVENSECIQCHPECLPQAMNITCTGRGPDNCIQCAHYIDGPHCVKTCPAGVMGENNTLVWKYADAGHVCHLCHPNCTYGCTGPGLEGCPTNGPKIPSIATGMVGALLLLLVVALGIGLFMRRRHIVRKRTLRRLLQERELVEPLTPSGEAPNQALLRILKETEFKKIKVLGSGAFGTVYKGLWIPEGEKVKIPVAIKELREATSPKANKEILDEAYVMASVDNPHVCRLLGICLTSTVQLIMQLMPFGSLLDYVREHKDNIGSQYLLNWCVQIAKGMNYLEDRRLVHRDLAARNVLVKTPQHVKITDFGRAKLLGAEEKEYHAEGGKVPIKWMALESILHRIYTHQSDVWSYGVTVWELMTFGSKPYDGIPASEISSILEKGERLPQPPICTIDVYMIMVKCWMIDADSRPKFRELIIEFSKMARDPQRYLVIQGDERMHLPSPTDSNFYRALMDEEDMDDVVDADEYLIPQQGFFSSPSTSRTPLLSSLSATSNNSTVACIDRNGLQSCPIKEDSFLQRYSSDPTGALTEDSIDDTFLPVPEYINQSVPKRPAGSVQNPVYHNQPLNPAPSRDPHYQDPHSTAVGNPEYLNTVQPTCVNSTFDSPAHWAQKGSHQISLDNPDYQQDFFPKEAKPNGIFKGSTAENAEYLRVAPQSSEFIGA
How it was run: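 Luminescent CellTiter-Glo read-out on Ba/F3 cells carrying EGFR L858R/T790M/C797S. Inhibition normalised between untreated vehicle and a 10 μM positive drug. IC50 taken from a variable-slope four-parameter fit of inhibition against log compound concentration.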

[3] = target: T1, EGFR^L858R/T790M/C797S protein (Homo sapiens, UniProt P00533, C797S/L858R/T790M); experiment: Induction of EGFR L858R/T790M/C797S protein degradation in Ba/F3 cells (Alpha counts); settings: 24h treatment; for degradation effect on EGFR^L858R/T790M/C797S protein (in words): FIG. 1 and 2
T1 construct: expressed in transfected cells; host or cells: Ba/F3 (EGFR^L858R/T790M/C797S) cells
T1 sequence (P00533 25-1210 T790M/C797S/L858R): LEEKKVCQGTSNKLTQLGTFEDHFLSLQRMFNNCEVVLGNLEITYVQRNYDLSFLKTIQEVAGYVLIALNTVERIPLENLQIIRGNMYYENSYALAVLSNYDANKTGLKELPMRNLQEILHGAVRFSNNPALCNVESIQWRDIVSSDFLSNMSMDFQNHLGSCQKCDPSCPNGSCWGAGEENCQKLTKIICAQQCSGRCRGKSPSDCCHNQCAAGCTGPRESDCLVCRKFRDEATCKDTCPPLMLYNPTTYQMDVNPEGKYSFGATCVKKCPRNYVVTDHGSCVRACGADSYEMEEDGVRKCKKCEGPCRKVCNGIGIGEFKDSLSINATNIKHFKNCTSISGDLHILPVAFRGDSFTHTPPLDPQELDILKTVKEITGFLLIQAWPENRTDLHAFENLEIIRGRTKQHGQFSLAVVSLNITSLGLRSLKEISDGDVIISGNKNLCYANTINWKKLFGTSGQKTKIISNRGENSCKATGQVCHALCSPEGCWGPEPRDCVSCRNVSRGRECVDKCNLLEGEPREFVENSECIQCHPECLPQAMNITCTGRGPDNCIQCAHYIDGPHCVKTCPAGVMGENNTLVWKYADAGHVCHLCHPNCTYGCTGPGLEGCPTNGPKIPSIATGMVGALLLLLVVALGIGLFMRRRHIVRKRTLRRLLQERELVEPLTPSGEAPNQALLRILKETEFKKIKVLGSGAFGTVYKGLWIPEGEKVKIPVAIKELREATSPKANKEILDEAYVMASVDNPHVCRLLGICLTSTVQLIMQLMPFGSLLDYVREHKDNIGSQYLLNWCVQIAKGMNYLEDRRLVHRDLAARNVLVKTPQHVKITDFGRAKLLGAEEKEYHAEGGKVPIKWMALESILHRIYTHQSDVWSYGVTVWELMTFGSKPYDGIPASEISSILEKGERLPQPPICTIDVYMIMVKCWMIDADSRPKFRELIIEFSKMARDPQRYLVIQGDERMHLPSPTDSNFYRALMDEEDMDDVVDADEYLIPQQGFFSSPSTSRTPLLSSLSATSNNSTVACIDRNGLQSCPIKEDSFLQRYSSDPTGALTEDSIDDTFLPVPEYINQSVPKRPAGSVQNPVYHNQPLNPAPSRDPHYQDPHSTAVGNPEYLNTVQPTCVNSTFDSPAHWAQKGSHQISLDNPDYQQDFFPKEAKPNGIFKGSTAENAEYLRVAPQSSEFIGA
Description: Ba/F3 (EGFR^L858R/T790M/C797S) and Ba/F3 (EGFR^Del19/T790M/C797S) cells were cultured according to the culture conditions recommended by ATCC, and analyzed by index.
Culture conditions: incubated at 37° C., 95% air, 5% CO2 incubator.
(2) Compound Stock Solution: 10 mM Stock Solution in DMSO, Stored at −20° C.
The cells in the cell culture bottle were collected, and the cells with viability of >90% can be used in the assay. Cells were seeded in a 96-well plate with 40 μL cells, 1*10^5 cells/well.
The compounds were serially diluted 3× with DMSO, with the starting concentrations of the compounds being 1.0 mM (EGFR^L858R/T790M/C797S assay) and 10 mM (EGFR^Del19/T790M/C797S assay), respectively, into 10 concentrations to prepare working solutions.
(5) Compound was Pipetted into the 96-Well Plate to Treat Cells in a 37° C., 95% Air, 5% CO2 Incubator for 24h.
• 1) 1 μg/mL EGF stimulated cells for 10 min; • 2) After the compound treatment was completed, lysis buffer was added to lyse cells; 10 μL of cell lysate was transferred to the 384-well plate; in addition, control lysate, negative control and 5 μL of acceptor mix were added to the 384-well plate; The plate was shaken on a shaker for 1-2 min; • 3) 5 μL of donor mix was added to each well; the 384-well plate was sealed, shaken on a shaker for 1-2 min, and left in the dark at room temperature overnight; then the plate was read with ELISA reader.
Alpha counts were fitted by logarithmic treatment of compound concentration with Graphpad Prism 8.0.
[formula] • X: logarithm of compound concentration; Y: Alpha Counts.

COc1cc(N2CCC(N3CCN(CCCC#Cc4cccc5c4CN(C4CCC(=O)NC4=O)C5=O)CC3)CC2)ccc1Nc1ncc(Cl)c(Nc2ccccc2P(C)(C)=O)n1 (stereo not shown) [Comparative compound C126]
IC50 [1]: 1390 nM

C=C(F)C(=O)Nc1cc(Nc2ncc(Cl)c(Nc3ccccc3P(C)(C)=O)n2)c(OC)cc1N1CCC(N2CCN(C)CC2)CC1 [Comparative compound L527, reference compound]
GI50 [2]: 458 nM | degradation effect on EGFR^L858R/T790M/C797S protein (in words) [3]: no degradation effect

C=C(F)C(=O)Nc1cc(Nc2ncc(Br)c(Nc3ccccc3P(C)(C)=O)n2)c(OC)cc1N1CCC(N2CCN(CCCC#Cc3cccc4c3CN(C3CCC(=O)NC3=O)C4=O)CC2)CC1 (stereo not shown) [Compound D078, N-(5-((5-bromo-4-((2-(dimethylphosphoryl)phenyl)amino)pyrimidin-2-yl)amino)-2-(4-(4-(5-(2-(2,6-dioxopiperidin-3-yl)-1-oxoisoindolin-4-yl)pent-4-yn-1-yl)piperazin-1-yl)piperidin-1-yl)-4-methoxyphenyl)-2-fluoroacrylamide]
GI50 [2]: 19.2 nM | degradation effect on EGFR^L858R/T790M/C797S protein (in words) [3]: significant degradation effect | DC50 ([3]; range 1 nM to 1000 nM, FIG. 1 and 2, read-out: DC50, reduction of EGFR^L858R/T790M/C797S protein level): 84.7 nM

COc1cc(N2CCC(N3CCN(CCCC#Cc4cccc5c4CN(C4CCC(=O)NC4=O)C5=O)CC3)CC2)c(C)cc1Nc1ncc(Br)c(Nc2ccc3nccnc3c2NS(C)(=O)=O)n1 (stereo not shown) [Compound D741, N-(6-((5-bromo-2-((4-(4-(4-(5-(2-(2,6-dioxopiperidin-3-yl)-1-oxoisoindolin-4-yl)pent-4-yn-1-yl)piperazin-1-yl)piperidin-1-yl)-2-methoxy-5-methylphenyl)amino)pyrimidin-4-yl)amino)quinoxalin-5-yl)methanesulfonamide]
GI50 [2]: 10.2 nM

C=C(F)C(=O)Nc1cc(Nc2ncc(C(F)(F)F)c(Nc3ccccc3P(C)(C)=O)n2)c(OC)cc1N1CCC(N2CCN(CCCC#Cc3cccc4c3CN(C3CCC(=O)NC3=O)C4=O)CC2)CC1 (stereo not shown) [Compound D746, N-(5-((4-((2-(dimethylphosphoryl)phenyl)amino)-5-(trifluoromethyl)pyrimidin-2-yl)amino)-2-(4-(4-(5-(2-(2,6-dioxopiperidin-3-yl)-1-oxoisoindolin-4-yl)pent-4-yn-1-yl)piperazin-1-yl)piperidin-1-yl)-4-methoxyphenyl)-2-fluoroacrylamide]
GI50 [2]: 3.36 nM

COc1cc(N2CCC(N3CCN(CCCC#Cc4cccc5c4CN(C4CCC(=O)NC4=O)C5=O)CC3)CC2)c(NC(=O)/C=C/C(F)(F)F)cc1Nc1ncc(C(F)(F)F)c(Nc2ccccc2P(C)(C)=O)n1 (stereo not shown) [Compound D747, (E)-N-(5-((4-((2-(dimethylphosphoryl)phenyl)amino)-5-(trifluoromethyl)pyrimidin-2-yl)amino)-2-(4-(4-(5-(2-(2,6-dioxopiperidin-3-yl)-1-oxoisoindolin-4-yl)pent-4-yn-1-yl)piperazin-1-yl)piperidin-1-yl)-4-methoxyphenyl)-4,4,4-trifluorobut-2-enamide]
GI50 [2]: 8.77 nM

CC#CC(=O)Nc1cc(Nc2ncc(C(F)(F)F)c(Nc3ccccc3P(C)(C)=O)n2)c(OC)cc1N1CCC(N2CCN(CCCC#Cc3cccc4c3CN(C3CCC(=O)NC3=O)C4=O)CC2)CC1 (stereo not shown) [Compound D748, N-(5-((4-((2-(dimethylphosphoryl)phenyl)amino)-5-(trifluoromethyl)pyrimidin-2-yl)amino)-2-(4-(4-(5-(2-(2,6-dioxopiperidin-3-yl)-1-oxoisoindolin-4-yl)pent-4-yn-1-yl)piperazin-1-yl)piperidin-1-yl)-4-methoxyphenyl)but-2-ynamide]
GI50 [2]: 7.76 nM

CCCC#CC(=O)Nc1cc(Nc2ncc(C(F)(F)F)c(Nc3ccccc3P(C)(C)=O)n2)c(OC)cc1N1CCC(N2CCN(CCCC#Cc3cccc4c3CN(C3CCC(=O)NC3=O)C4=O)CC2)CC1 (stereo not shown) [Compound D835, N-(5-((4-((2-(dimethylphosphoryl)phenyl)amino)-5-(trifluoromethyl)pyrimidin-2-yl)amino)-2-(4-(4-(5-(2-(2,6-dioxopiperidin-3-yl)-1-oxoisoindolin-4-yl)pent-4-yn-1-yl)piperazin-1-yl)piperidin-1-yl)-4-methoxyphenyl)hex-2-ynamide]
GI50 [2]: 11.9 nM

CC#CC(=O)Nc1cc(Nc2ncc(Br)c(Nc3ccccc3P(C)(C)=O)n2)c(OCC(F)(F)F)cc1N1CCC(N2CCN(CCCC#Cc3cccc4c3CN(C3CCC(=O)NC3=O)C4=O)CC2)CC1 (stereo not shown) [Compound D845, N-(5-((5-bromo-4-((2-(dimethylphosphoryl)phenyl)amino)pyrimidin-2-yl)amino)-2-(4-(4-(5-(2-(2,6-dioxopiperidin-3-yl)-1-oxoisoindolin-4-yl)pent-4-yn-1-yl)piperazin-1-yl)piperidin-1-yl)-4-(2,2,2-trifluoroethoxy)phenyl)but-2-ynamide]
GI50 [2]: 16.9 nM

C=C(F)C(=O)Nc1cc(Nc2ncc(Br)c(Nc3ccccc3P(C)(C)=O)n2)c(OCC(F)(F)F)cc1N1CCC(N2CCN(CCCC#Cc3cccc4c3CN(C3CCC(=O)NC3=O)C4=O)CC2)CC1 (stereo not shown) [Compound D846, N-(5-((5-bromo-4-((2-(dimethylphosphoryl)phenyl)amino)pyrimidin-2-yl)amino)-2-(4-(4-(5-(2-(2,6-dioxopiperidin-3-yl)-1-oxoisoindolin-4-yl)pent-4-yn-1-yl)piperazin-1-yl)piperidin-1-yl)-4-(2,2,2-trifluoroethoxy)phenyl)-2-fluoroacrylamide]
GI50 [2]: 11.9 nM

CP(C)(=O)c1ccccc1Nc1nc(Nc2cc(NC(=O)/C=C/C(F)(F)F)c(N3CCC(N4CCN(CCCC#Cc5cccc6c5CN(C5CCC(=O)NC5=O)C6=O)CC4)CC3)cc2OCC(F)(F)F)ncc1Br (stereo not shown) [Compound D847, (E)-N-(5-((5-bromo-4-((2-(dimethylphosphoryl)phenyl)amino)pyrimidin-2-yl)amino)-2-(4-(4-(5-(2-(2,6-dioxopiperidin-3-yl)-1-oxoisoindolin-4-yl)pent-4-yn-1-yl)piperazin-1-yl)piperidin-1-yl)-4-(2,2,2-trifluoroethoxy)phenyl)-4,4,4-trifluorobut-2-enamide]
GI50 [2]: 16.3 nM

CCCC#CC(=O)Nc1cc(Nc2ncc(Br)c(Nc3ccccc3P(C)(C)=O)n2)c(OCC(F)(F)F)cc1N1CCC(N2CCN(CCCC#Cc3cccc4c3CN(C3CCC(=O)NC3=O)C4=O)CC2)CC1 (stereo not shown) [Compound D856, N-(5-((5-bromo-4-((2-(dimethylphosphoryl)phenyl)amino)pyrimidin-2-yl)amino)-2-(4-(4-(5-(2-(2,6-dioxopiperidin-3-yl)-1-oxoisoindolin-4-yl)pent-4-yn-1-yl)piperazin-1-yl)piperidin-1-yl)-4-(2,2,2-trifluoroethoxy)phenyl)hex-2-ynamide]
GI50 [2]: 27.4 nM

C=C(F)C(=O)Nc1cc(Nc2ncc(C(F)(F)F)c(Nc3ccccc3P(C)(C)=O)n2)c(OCC(F)(F)F)cc1N1CCC(N2CCN(CCCC#Cc3cccc4c3CN(C3CCC(=O)NC3=O)C4=O)CC2)CC1 (stereo not shown) [Compound D870, N-(5-((4-((2-(dimethylphosphoryl)phenyl)amino)-5-(trifluoromethyl)pyrimidin-2-yl)amino)-2-(4-(4-(5-(2-(2,6-dioxopiperidin-3-yl)-1-oxoisoindolin-4-yl)pent-4-yn-1-yl)piperazin-1-yl)piperidin-1-yl)-4-(2,2,2-trifluoroethoxy)phenyl)-2-fluoroacrylamide]
GI50 [2]: 8.87 nM

COc1cc(N2CCC(N3CCN(CCCC#Cc4cccc5c4CN(C4CCC(=O)NC4=O)C5=O)CC3)CC2)c(C)cc1Nc1ncc(Br)c(Nc2ccc3nccnc3c2N(C)S(C)(=O)=O)n1 (stereo not shown) [Compound D932]
GI50 [2]: 36.7 nM

C=C(F)C(=O)Nc1cc(Nc2ncc(Br)c(Nc3ccc4nccnc4c3NS(C)(=O)=O)n2)c(OC)cc1N1CCC(N2CCN(CCCC#Cc3cccc4c3CN(C3CCC(=O)NC3=O)C4=O)CC2)CC1 (stereo not shown) [Compound D933]
GI50 [2]: 12.3 nM

C=C(F)C(=O)Nc1cc(Nc2ncc(Br)c(Nc3ccc4nccnc4c3N(C)S(C)(=O)=O)n2)c(OC)cc1N1CCC(N2CCN(CCCC#Cc3cccc4c3CN(C3CCC(=O)NC3=O)C4=O)CC2)CC1 (stereo not shown) [Compound D934]
GI50 [2]: 31.9 nM

— US20250257086A1, “EGFR DEGRADATION AGENT” (Beijing Tide Pharmaceutical Co., Ltd., priority 2022, published 2025)
